Reference: patent publication US7432375B2, “JNK inhibitors” (Eisai R & D Management Co., Ltd., priority 2003, dated 2008)

Key:
Type in all cases: biochemical
JNK2 = JNK2 (Homo sapiens, UniProt P45984); assay: JNK2 SPA assay; details: phosphorylation of GST-c-Jun, 3.33 μM ATP
Experimental: (§1) JNK1, JNK2, JNK3—SPA Assay
(§2) • 1. Compound is dissolved in DMSO to a convenient concentration and this is diluted in 10% DMSO to a five times concentrate of the desired starting concentration (frequently 1:100). • 2. 10 μl of 500 mM EDTA is added to alternative wells of the Opti-plate row, which will receive kinase reaction plus DMSO. This creates the negative control. • 3. For the JNK2 and JNK3 assay, compounds are prepared in six 2-fold dilutions with water and each concentration is tested in duplicate. For the JNK1 assay compounds are prepared in four 5-fold dilutions with water which are tested in triplicate. Controls are treated identically. • 4. 20 μl per well of each compound concentration is transferred to an Opti-plate, in duplicate. • 5. 30 μl (JNK2/3 SPA) or 50 μl (JNK1 SPA) of substrate solution (25 mM HEPES pH 7.5, 10 mM magnesium acetate with 3.33 μM ATP (JNK2/3) or 2 μM ATP (JNK1), approximately 7.5 kBq [γ-^33P] ATp, GST-c-Jun, in water) is added to each well. • 6. 50 μl (JNK2/3 SPA) or 30 μl (JNK1 SPA) of kinase solution (JNK in 25 mM HEPES pH 7.5, 10 mM Mg Acetate) is added to each well.
(§3) • 7. The plate is incubated for 30 minutes at room temperature. • 8. 100 μl of bead/stop solution is added to each well (5 mg/ml glutathione-PVT-SPA beads, 40 mM ATP in PBS). • 9. Plates are sealed and incubated for 30 minutes at room temperature, centrifuged for 10 minutes at 2500 g and counted. • 10. The IC50 values are calculated as the concentration of the compound being tested at which the phosphorylation of c-Jun is decreased to 50% of the control value.

JNK3 = JNK3 (Homo sapiens, UniProt P53779); assay: JNK3 SPA assay; details: phosphorylation of GST-c-Jun, 3.33 μM ATP
Sequence of JNK3 (P53779 whole entry): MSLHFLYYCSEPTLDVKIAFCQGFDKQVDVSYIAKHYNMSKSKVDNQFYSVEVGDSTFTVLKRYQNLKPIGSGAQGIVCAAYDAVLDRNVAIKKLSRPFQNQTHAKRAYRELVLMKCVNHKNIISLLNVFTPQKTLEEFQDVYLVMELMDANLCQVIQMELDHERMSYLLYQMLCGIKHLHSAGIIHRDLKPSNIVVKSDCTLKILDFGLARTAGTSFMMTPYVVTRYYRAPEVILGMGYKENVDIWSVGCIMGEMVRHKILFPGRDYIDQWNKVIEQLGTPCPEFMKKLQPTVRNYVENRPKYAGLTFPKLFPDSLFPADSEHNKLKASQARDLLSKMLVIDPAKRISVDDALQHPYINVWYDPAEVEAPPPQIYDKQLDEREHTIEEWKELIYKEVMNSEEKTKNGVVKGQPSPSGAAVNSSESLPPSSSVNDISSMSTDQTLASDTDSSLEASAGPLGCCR
Experimental: as §1, §2, §3

JNK1 = JNK1 (Homo sapiens, UniProt P45983); assay: JNK1 SPA assay; details: phosphorylation of GST-c-Jun, 2 μM ATP
Sequence of JNK1 (P45983 whole entry): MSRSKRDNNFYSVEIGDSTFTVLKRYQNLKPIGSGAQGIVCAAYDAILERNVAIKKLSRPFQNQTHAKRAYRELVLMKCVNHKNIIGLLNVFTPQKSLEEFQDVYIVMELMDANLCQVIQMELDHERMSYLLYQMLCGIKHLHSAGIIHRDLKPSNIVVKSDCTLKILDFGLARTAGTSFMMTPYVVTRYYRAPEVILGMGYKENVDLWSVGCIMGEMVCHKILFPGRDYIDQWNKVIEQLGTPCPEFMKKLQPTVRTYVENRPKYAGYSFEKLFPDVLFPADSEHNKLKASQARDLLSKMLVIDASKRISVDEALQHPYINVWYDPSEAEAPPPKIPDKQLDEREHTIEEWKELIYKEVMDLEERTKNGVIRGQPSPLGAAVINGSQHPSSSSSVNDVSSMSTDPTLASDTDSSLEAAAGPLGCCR
Experimental: as §1, §2, §3

p38 MAP kinase = molecular target: T1, p38 MAP kinase (Homo sapiens, UniProt Q16539); assay: p38 ELISA; details: phosphorylation of GST-ATF2, 50 μM ATP
T1 construct: purchased Upstate
T1 sequence (Q16539 whole entry): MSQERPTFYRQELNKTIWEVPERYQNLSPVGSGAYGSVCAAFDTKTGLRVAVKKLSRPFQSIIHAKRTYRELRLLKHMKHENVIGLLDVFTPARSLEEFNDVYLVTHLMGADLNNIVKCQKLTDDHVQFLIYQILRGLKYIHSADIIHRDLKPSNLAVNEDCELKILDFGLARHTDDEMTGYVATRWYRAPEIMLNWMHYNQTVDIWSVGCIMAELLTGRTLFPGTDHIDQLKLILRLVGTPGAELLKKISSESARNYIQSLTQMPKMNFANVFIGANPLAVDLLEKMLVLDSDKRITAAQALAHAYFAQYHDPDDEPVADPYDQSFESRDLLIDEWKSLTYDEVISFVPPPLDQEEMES
Experimental: Active p38 kinase (100 ng; Upstate) was added to 2 μg GST-ATF2 substrate (NEB) in 250 mM Hepes pH 7.5/100 mM MgAc/50 μM ATP (final) in the presence or absence of compounds in 50 μl. The mixture was incubated at 30° C. for 1 hour, and then diluted with 200 μl PBS-Tween (0.05%). From this, duplicate volumes of 100 μl were added to a Reacti-Bind glutathione coated plate (Pierce) and incubated for 1 hour. After washing 3 times with PBS-Tween (0.05%), rabbit anti-phospho-ATF2 (Thr71) antibody (NEB) was added at 1:500, and incubated for another hour at room temperature. After 3 additional washes with PBS-Tween (0.05%), […] anti-rabbit IgG alkaline phosphatase-conjugated secondary antibody (Sigma) was added at 1:1000, the reaction was incubated for a further hour, washed 3 times, and then phosphatase substrate (Sigma) was added (100 μl per well; 3 tablets in 5 ml water). After incubation in the dark at 37° C. for 1 hour, the reaction mixture was transferred to a clear 96 well plate, and the absorbance at 405 nm was read.
The IC50 values are calculated as the concentration of the compound being tested at which the phosphorylation of ATF2 is decreased to 50% of the control value.

Sequence of JNK2 (P45984 whole entry): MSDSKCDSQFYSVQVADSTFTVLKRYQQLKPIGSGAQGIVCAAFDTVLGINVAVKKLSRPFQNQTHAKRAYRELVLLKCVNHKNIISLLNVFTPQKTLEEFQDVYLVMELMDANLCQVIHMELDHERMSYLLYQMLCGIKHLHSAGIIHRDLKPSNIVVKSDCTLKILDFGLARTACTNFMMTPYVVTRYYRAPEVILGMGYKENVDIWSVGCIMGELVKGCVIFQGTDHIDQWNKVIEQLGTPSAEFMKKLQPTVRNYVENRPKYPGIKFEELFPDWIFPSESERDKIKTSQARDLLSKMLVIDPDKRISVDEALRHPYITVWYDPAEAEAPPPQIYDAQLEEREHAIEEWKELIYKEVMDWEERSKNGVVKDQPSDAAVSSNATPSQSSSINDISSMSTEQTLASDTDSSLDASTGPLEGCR

| SMILES | IC50 (JNK2) | IC50 (JNK3) | IC50 (JNK1) | IC50 (p38 MAP kinase) |
| --- | --- | --- | --- | --- |
| CN(C)c1ccc(-c2cnc3[nH]cc(-c4ccoc4)c3c2)cc1 | < 500 nM | < 500 nM | < 500 nM | > 10000 nM |
| c1csc(-c2cnc3[nH]cc(-c4ccoc4)c3c2)c1 | < 500 nM | < 500 nM | < 500 nM | > 10000 nM |
| CN(C)c1ccc(-c2cnc3[nH]cc(-c4cc[nH]c4)c3c2)cc1 | – | < 500 nM | – | – |
| c1csc(-c2cnc3[nH]cc(-c4cncs4)c3c2)c1 | < 500 nM | < 500 nM | < 500 nM | > 10000 nM |
| Fc1cccc(-c2c[nH]c3ncc(-c4ccccc4Oc4ccccc4)cc23)c1 | – | < 500 nM | – | – |
| c1ccc(Oc2ccccc2-c2cnc3[nH]cc(-c4ccccc4)c3c2)cc1 | – | < 500 nM | – | – |
